# According to patent US12448399B2, “Cereblon-based KRAS degrading PROTACs and uses related thereto” (Arvinas Operations, Inc., priority 2023, dated 2025):
# Molecular target: T1, KRas-G12D (Homo sapiens, UniProt P01116, G12D)
# T1 construct: insert the HiBiT tag onto the N-terminus of one or more of the endogenous KRas alleles; host or cells: AsPC-1 HiBiT-KRasG12D knock-in clone (one tagged allele, two untagged KRasG12D alleles)
# Test: HiBiT Degradation Assay (G12D), AsPC-1 HiBiT-KRasG12D cells, 24 hr
# Format: cell-based
# Conditions: for Dmax: ASPC1, AsPC-1 cells, maximum degradation observed; for DC50: AsPC-1 cells
# In short: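 AsPC-1 cells with CRISPR N-terminal HiBiT knock-in on one endogenous KRasG12D allele, treated 24 hr at 37° C with compound titrations in 0.5% DMSO. Lytic HiBiT luminescence normalized to DMSO, fitted to a 4-parameter model for DC50 and Dmax. Parallel alamar blue (4 hr) checked viability.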
# T1 sequence (P01116 1-188 isoform P01116-2 G12D): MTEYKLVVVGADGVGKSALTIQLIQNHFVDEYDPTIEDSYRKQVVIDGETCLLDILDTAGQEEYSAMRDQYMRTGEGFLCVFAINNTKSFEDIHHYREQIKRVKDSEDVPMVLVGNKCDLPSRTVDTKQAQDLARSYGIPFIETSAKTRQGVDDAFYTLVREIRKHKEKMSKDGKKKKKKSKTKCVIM
Structure (SMILES),Dmax [%],DC50 [µM]
"C#Cc1c(F)ccc2cc(O)cc(-c3ncc4c(N5CC6CCC(C5)N6)nc(OCCN5CCC(CC6CCN(c7cccc8c7CN(C7CCC(=O)NC7=O)C8=O)CC6)CC5)nc4c3F)c12 (stereo not shown) [Compound 35, 3-[4-[4-[[1-[2-[4-(3,8-diazabicyclo[3.2.1]octan-3-yl)-7-(8-ethynyl-7-fluoro-3-hydroxy-1-naphthyl)-8-fluoro-pyrido[4,3-d]pyrimidin-2-yl]oxyethyl]-4-piperidyl]methyl]-1-piperidyl]-1-oxo-isoindolin-2-yl]piperidine-2,6-dione]",> 70,0.1 to 5.25
C#Cc1c(F)ccc2cc(O)cc(-c3ncc4c(C5CC6CCC(C5)N6)nc(OCCN5CCC6(CC5)CCN(CC5CCN(c7ccc8c(c7)CN(C7CCC(=O)NC7=O)C8=O)CC5)CC6)nc4c3F)c12 (stereo not shown) [Compound 70],> 70,< 5.1
CCc1cccc2cc(O)cc(-c3ncc4c(N5CC6CCC(C5)N6)nc(OCCN5CCC(c6ccc7c(c6)CN(C6CCC(=O)NC6=O)C7=O)CC5)nc4c3F)c12 (stereo not shown) [Compound 38],–,0.1 to 5.25
C#Cc1c(F)ccc2cc(O)cc(-c3ccc4c(N5CC6CCC(C5)N6)nc(OCCN5CCC(CN6CCC(CC7CCN(c8ccc9c(c8F)n(C)c(=O)n9C8CCC(=O)NC8=O)CC7)CC6)CC5)nc4c3F)c12 (stereo not shown) [Compound 231],> 70,< 5.1
CCc1cccc2cc(O)cc(-c3ncc4c(N5CC6CCC(C5)N6)nc(OCCN5CCN(CC6CCN(c7ccc(N8CCC(=O)NC8=O)c(F)c7)CC6)CC5)nc4c3F)c12 [Compound 14],≤ 25,0.25 to 1
"C#Cc1c(F)ccc2cc(O)cc(-c3ncc4c(N5CC6CCC(C5)N6)nc(OCCN5CCC(CN6CCN(CC7CCN(c8cccc9c8CN(C8CCC(=O)NC8=O)C9=O)CC7)CC6)CC5)nc4c3F)c12 (stereo not shown) [Compound 136, 3-{4-[4-({4-[(1-{2-[(4-{3,8-diazabicyclo[3.2.1]octan-3-yl}-7-(8-ethynyl-7-fluoro-3-hydroxynaphthalen-1-yl)-8-fluoropyrido[4,3-d]pyrimidin-2-yl)oxy]ethyl}piperidin-4-yl)methyl]piperazin-1-yl}methyl)piperidin-1-yl]-1-oxo-2,3-dihydro-1H-isoindol-2-yl}piperidine-2,6-dione]",> 70,< 5.1
"C#Cc1c(F)ccc2cc(O)cc(-c3ncc4c(N5CC6CCC(C5)N6)nc(OCCN5CCC(C)(CN6CCN(CC7CCN(c8ccc9c(c8)n(C)c(=O)n9C8CCC(=O)NC8=O)CC7)CC6)CC5)nc4c3F)c12 (stereo not shown) [Compound 160, 3-{5-[4-({4-[(1-{2-[(4-{3,8-diazabicyclo[3.2.1]octan-3-yl}-7-(8-ethynyl-7-fluoro-3-hydroxynaphthalen-1-yl)-8-fluoropyrido[4,3-d]pyrimidin-2-yl)oxy]ethyl}-4-methylpiperidin-4-yl)methyl]piperazin-1-yl}methyl)piperidin-1-yl]-3-methyl-2-oxo-2,3-dihydro-1H-1,3-benzodiazol-1-yl}piperidine-2,6-dione]",> 70,< 5.1
"CCc1cccc2cc(O)cc(-c3ncc4c(N5CC6CCC(C5)N6)nc(OC[C@@]56CCCN5[C@H](COC(=O)N5CCN(c7ccc8c(c7)CN(C7CCC(=O)NC7=O)C8=O)CC5)CC6)nc4c3F)c12 (stereo partly drawn) [Compound 58, [(3S,8S)-8-[[4-(3,8-diazabicyclo[3.2.1]octan-3-yl)-7-(8-ethyl-3-hydroxy-1-naphthyl)-8-fluoro-pyrido[4,3-d]pyrimidin-2-yl]oxymethyl]-1,2,3,5,6,7-hexahydropyrrolizin-3-yl]methyl 4-[2-(2,6-dioxo-3-piperidyl)-1-oxo-isoindolin-5-yl]piperazine-1-carboxylate]",–,< 5.1
C#Cc1c(F)ccc2cccc(-c3ncc4c(N5CC6CCC(C5)N6)nc(OCCN5CCC(CN6CC7(CCN(c8ccc9c(c8F)CN(C8CCC(=O)NC8=O)C9=O)CC7)C6)CC5)nc4c3F)c12 (stereo not shown) [Compound 155],–,> 1
"C#Cc1c(F)ccc2cc(O)cc(-c3ncc4c(N5CC6CCC(C5)N6)nc(OCCN5CCC(CCC6CCN(c7cccc8c7CN(C7CCC(=O)NC7=O)C8=O)CC6)CC5)nc4c3F)c12 (stereo not shown) [Compound 128, 3-(4-{4-[2-(1-{2-[(4-{3,8-diazabicyclo[3.2.1]octan-3-yl}-7-(8-ethynyl-7-fluoro-3-hydroxynaphthalen-1-yl)-8-fluoropyrido[4,3-d]pyrimidin-2-yl)oxy]ethyl}piperidin-4-yl)ethyl]piperidin-1-yl}-1-oxo-2,3-dihydro-1H-isoindol-2-yl)piperidine-2,6-dione]",> 70,0.1 to 5.25
"C#Cc1c(F)ccc2cc(O)cc(-c3ncc4c(N5CC6CCC(C5)N6)nc(OCCN5CCC(C(F)(F)C6CCN(CC7CCN(c8ccc9c(c8F)CN(C8CCC(=O)NC8=O)C9=O)CC7)CC6)CC5)nc4c3F)c12 (stereo not shown) [Compound 79, 3-{5-[4-({4-[(1-{2-[(4-{3,8-diazabicyclo[3.2.1]octan-3-yl}-7-(8-ethynyl-7-fluoro-3-hydroxynaphthalen-1-yl)-8-fluoropyrido[4,3-d]pyrimidin-2-yl)oxy]ethyl}piperidin-4-yl)difluoromethyl]piperidin-1-yl}methyl)piperidin-1-yl]-4-fluoro-1-oxo-2,3-dihydro-1H-isoindol-2-yl}piperidine-2,6-dione]",> 70,< 5.1
C#Cc1c(F)ccc2cc(O)cc(-c3ncc4c(N5CC6CCC(C5)N6)nc(OC[C@@H]5C[C@@H](OC6CCN(CC7CCN(c8ccc9c(c8)CN(C8CCC(=O)NC8=O)C9=O)CC7)CC6)CN5C)nc4c3F)c12 (stereo partly shown) [Compound 116],> 70,< 5.1
"C#Cc1c(F)ccc2cc(O)cc(-c3ncc4c(N5CC6CCC(C5)N6)nc(N5CC[C@@H](N6CCC(CC7CCN(c8ccc9c(c8)n(C)c(=O)n9C8CCC(=O)NC8=O)CC7)CC6)C5)nc4c3F)c12 (stereo partly drawn) [Compound 236, 3-[5-[4-[[1-[(3R)-1-[4-(3,8-diazabicyclo[3.2.1]octan-3-yl)-7-(8-ethynyl-7-fluoro-3-hydroxy-1-naphthyl)-8-fluoro-pyrido[4,3-d]pyrimidin-2-yl]pyrrolidin-3-yl]-4-piperidyl]methyl]-1-piperidyl]-3-methyl-2-oxo-benzimidazol-1-yl]piperidine-2,6-dione]",> 70,< 5.1
C#Cc1c(F)ccc2cc(O)cc(-c3nc(N4CC5CCC(C4)N5)c4cnc(OCCN5CCC6(CC5)CCN(CC5CCN(c7ccc8c(c7)CN(C7CCC(=O)NC7=O)C8=O)CC5)CC6)nc4c3F)c12 (stereo not shown) [Compound 134],> 70,< 5.1
"C#Cc1c(F)ccc2cc(O)cc(-c3ncc4c(N5CC6CCC(C5)N6)nc(OCC5(CN6CCC(CC7CCN(c8ccc9c(c8)CN(C8CCC(=O)NC8=O)C9=O)CC7)CC6)CC5)nc4c3F)c12 (stereo not shown) [Compound 99, 3-{5-[4-({1-[(1-{[(4-{3,8-diazabicyclo[3.2.1]octan-3-yl}-7-(8-ethynyl-7-fluoro-3-hydroxynaphthalen-1-yl)-8-fluoropyrido[4,3-d]pyrimidin-2-yl)oxy]methyl}cyclopropyl)methyl]piperidin-4-yl}methyl)piperidin-1-yl]-1-oxo-2,3-dihydro-1H-isoindol-2-yl}piperidine-2,6-dione]",> 70,< 5.1
"C#Cc1c(F)ccc2cc(O)cc(-c3ncc4c(N5CC6CCC(C5)N6)nc(OCCN5CCC(F)(CN6CCC(CC7CCN(c8ccc9c(c8)n(C)c(=O)n9C8CCC(=O)NC8=O)CC7)CC6)CC5)nc4c3F)c12 (stereo not shown) [Compound 183, 3-{5-[4-({1-[(1-{2-[(4-{3,8-diazabicyclo[3.2.1]octan-3-yl}-7-(8-ethynyl-7-fluoro-3-hydroxynaphthalen-1-yl)-8-fluoropyrido[4,3-d]pyrimidin-2-yl)oxy]ethyl}-4-fluoropiperidin-4-yl)methyl]piperidin-4-yl}methyl)piperidin-1-yl]-3-methyl-2-oxo-2,3-dihydro-1H-1,3-benzodiazol-1-yl}piperidine-2,6-dione]",> 70,< 5.1
C#Cc1c(F)ccc2cc(O)cc(-c3ccc4c(N5CC6CCC(C5)N6)nc(OCCN5CCC(CC6CCN(CC7CCN(c8ccc9c(c8)n(C)c(=O)n9C8CCC(=O)NC8=O)CC7)CC6)CC5)nc4c3F)c12 (stereo not shown) [Compound 237],> 70,< 5.1
"C#Cc1c(F)ccc2cc(O)cc(-c3ncc4c(N5CC6CCC(C5)N6)nc(OCCN5CCC(CC6CCN(CC7CCN(c8cccc9c8n(C)c(=O)n9C8CCC(=O)NC8=O)CC7)CC6)CC5)nc4c3F)c12 (stereo not shown) [Compound 133, 3-{4-[4-({4-[(1-{2-[(4-{3,8-diazabicyclo[3.2.1]octan-3-yl}-7-(8-ethynyl-7-fluoro-3-hydroxynaphthalen-1-yl)-8-fluoropyrido[4,3-d]pyrimidin-2-yl)oxy]ethyl}piperidin-4-yl)methyl]piperidin-1-yl}methyl)piperidin-1-yl]-3-methyl-2-oxo-2,3-dihydro-1H-1,3-benzodiazol-1-yl}piperidine-2,6-dione]",> 70,< 5.1
"CCc1cccc2cc(O)cc(-c3ncc4c(N5CC6CCC(C5)N6)nc(OC[C@@]56CCCN5[C@H](COC(=O)N5CCN(c7cccc8c7CN(C7CCC(=O)N(C)C7=O)C8=O)CC5)CC6)nc4c3F)c12 (stereo partly drawn) [Compound 52, [(3S,8S)-8-[[4-(3,8-diazabicyclo[3.2.1]octan-3-yl)-7-(8-ethyl-3-hydroxy-1-naphthyl)-8-fluoro-pyrido[4,3-d]pyrimidin-2-yl]oxymethyl]-1,2,3,5,6,7-hexahydropyrrolizin-3-yl]methyl 4-[2-(1-methyl-2,6-dioxo-3-piperidyl)-1-oxo-isoindolin-4-yl]piperazine-1-carboxylate]",≤ 25,0.25 to 1
"C#Cc1c(F)ccc2cc(O)cc(-c3ncc4c(N5CC6CCC(C5)N6)nc(OCCN5CCC(CC6CCN(CC7CCN(c8cccc9c8CN(C8CCC(=O)NC8=O)C9=O)CC7)CC6)CC5)nc4c3F)c12 (stereo not shown) [Compound 43, 3-[4-[4-[[4-[[1-[2-[4-(3,8-diazabicyclo[3.2.1]octan-3-yl)-7-(8-ethynyl-7-fluoro-3-hydroxy-1-naphthyl)-8-fluoro-pyrido[4,3-d]pyrimidin-2-yl]oxyethyl]-4-piperidyl]methyl]-1-piperidyl]methyl]-1-piperidyl]-1-oxo-isoindolin-2-yl] piperidine-2,6-dione]",> 70,< 5.1
